# Laboratory results reported in the NIST ThermoML archive (doi:10.1016/j.fluid.2012.06.017).
# ± gives the expanded uncertainty stated by the source.
# Conditions: Liquid; Pulse-heating method
Critical pressure,Critical temperature,SMILES
1310 ± 80 kPa,587 ± 12 K,CC(C)O[Si](OC(C)C)(OC(C)C)OC(C)C [isopropyl silicate ((C3H7O)4Si)]
1070 ± 60 kPa,657 ± 14 K,CC(C)(C)[O-].CC(C)(C)[O-].CC(C)(C)[O-].CC(C)(C)[O-].[Ti+4] [titanium(IV) 2-methylpropan-2-olate]
1140 ± 60 kPa,641 ± 12 K,CC(C)[O-].CC(C)[O-].CC(C)[O-].CC(C)[O-].[Ti+4] [titanium(IV) 2-propanolate]
